Reference: patent US8486900B2, “Method for preparing a Centella asiatica extract rich in madecassoside and in terminoloside” (Bayer Consumer Care AG, priority 2002, dated 2013)

System: HaCaT human keratinocytes
Test: Cytotoxicity, Neutral Red colorimetric assay on HaCaT human keratinocytes
Assay type: cell-based
Settings: for Viability (24 h), % of control / Viability (72 h), % of control: Example 12, HaCaT
Protocol: The cytotoxicity was studied on HaCaT human keratinocytes seeded into 96-well plates at a rate of 20×10^3, broad range, and 10×10^3, limited range, cells per well. The cell viability is evaluated by means of a colorimetric assay with Neutral Red. Neutral Red is a weakly cationic dye that penetrates cell membranes by means of a nonionic diffusion phenomenon and binds intracellularly to the phosphate and/or carboxylic groups of the lysosomal matrix. Modifications in the accumulation and retention of Neutral Red are observed when the cell membranes are damaged. The optical density of the solution obtained after incubation of the cells in the presence of Neutral Red is therefore proportional to the number of living cells.
A broad range of 9 concentrations, from 0.001 to 1 mg/ml, was initially tested. The various test solutions were prepared in DMEM medium, […], supplemented with 10 vol % of FCS, fetal calf serum. […] The cell viability was evaluated by means of a Neutral Red colorimetric assay, after 72 hours of incubation. […] From 1 mg/ml, a slight dose-dependent cytotoxic effect is observed. […]
A second limited range of between 0.075 and 5 mg/ml was tested. […] The cell viability was evaluated by means of a Neutral Red colorimetric assay, after 72 hours of incubation. The results obtained were similar to those recorded in the absence of DMSO.

CC1OC(O[C@@H]2C(CO)OC(OCC3OC(OC(=O)C4CC(C)(C)CC5C6=CCC7C(CC(O)C8C(C)(CO)C(O)C(O)CC78C)C6(C)CCC45)[C@@H](O)C(O)[C@@H]3O)[C@@H](O)C2O)[C@@H](O)C(O)[C@H]1O (stereo partly drawn) [Terminoloside, 1-[O-α-L-rhamnopyranosyl-(1-4)-O-β-glucopyranosol-(1-6)]-O-β-D-glucopyranose 2α,3β,6β,23-tetrahydroxyolea-12-en-28-oate]
Viability (24 h), % of control (0.05 mg/ml): 105%
Viability (24 h), % of control (0.1 mg/ml): 104%
Viability (24 h), % of control (0.25 mg/ml): 105%
Viability (24 h), % of control (0.5 mg/ml): 105%
Viability (24 h), % of control (1 mg/ml): 104%
Viability (24 h), % of control (2.5 mg/ml): 100%
Viability (24 h), % of control (5 mg/ml): 81%
Viability (24 h), % of control (10 mg/ml): 73%
Viability (72 h), % of control (0.1 mg/ml): 100%
Viability (72 h), % of control (0.25 mg/ml): 101%
Viability (72 h), % of control (0.5 mg/ml): 101%
Viability (72 h), % of control (0.75 mg/ml): 103%
Viability (72 h), % of control (1 mg/ml): 102%
Viability (72 h), % of control (2.5 mg/ml): 103%
Viability (72 h), % of control (5 mg/ml): 93%
Viability (72 h), % of control (7.5 mg/ml): 86%
Viability (72 h), % of control (10 mg/ml): 69%
concentrations inducing no significant modification of the cell response to Neutral Red (HaCaT, 24 h of contact): 2500 µg/mL
